Measured values: the supplement of paper PMC12076712

What was measured:
Assay in all cases: pIC50, kinobeads binding competition
PRKCB = PRKCB (UniProt P05771)
Procedure, shortened: (§1)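 Jurkat cells were exposed alive to nine compound concentrations (top 30 μM, 1:4 steps) or vehicle for 60 min at 37 °C and then lysed. In a second format, nine concentrations (top 30 μM, 1:5 steps) were incubated for 60 min at 4 °C with Jurkat lysate or with a 1:1:1:1 lysate mix of HEK293, K-562, HepG2 and placenta. Proteins captured on Kinobeads were digested and quantified by TMT10 LC-MS/MS. pIC50 values were derived from logistic dose-response fits (R drc package) of fold changes relative to vehicle, in biological duplicates.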

UniProt P27448 = molecular target: UniProt P27448
Sequence of UniProt P27448 (P27448 whole entry, looked up): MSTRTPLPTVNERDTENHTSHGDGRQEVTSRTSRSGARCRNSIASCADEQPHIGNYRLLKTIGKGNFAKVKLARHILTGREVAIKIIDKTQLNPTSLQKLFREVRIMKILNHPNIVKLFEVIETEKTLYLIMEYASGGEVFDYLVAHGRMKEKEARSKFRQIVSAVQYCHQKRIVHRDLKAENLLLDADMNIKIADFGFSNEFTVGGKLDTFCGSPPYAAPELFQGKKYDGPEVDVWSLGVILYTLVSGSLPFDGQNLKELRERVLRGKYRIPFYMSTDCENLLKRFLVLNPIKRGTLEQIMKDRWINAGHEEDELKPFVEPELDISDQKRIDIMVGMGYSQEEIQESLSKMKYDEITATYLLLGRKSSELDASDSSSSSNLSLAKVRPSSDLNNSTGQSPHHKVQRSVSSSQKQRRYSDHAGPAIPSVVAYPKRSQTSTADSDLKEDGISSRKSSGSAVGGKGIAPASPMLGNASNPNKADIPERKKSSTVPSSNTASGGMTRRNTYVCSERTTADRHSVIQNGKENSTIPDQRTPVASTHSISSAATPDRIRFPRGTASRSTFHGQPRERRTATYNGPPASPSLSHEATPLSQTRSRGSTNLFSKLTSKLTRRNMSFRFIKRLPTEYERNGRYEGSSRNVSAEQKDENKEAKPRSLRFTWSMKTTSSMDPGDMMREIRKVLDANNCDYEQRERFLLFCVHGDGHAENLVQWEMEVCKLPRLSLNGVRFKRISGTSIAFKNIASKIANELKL
Procedure, shortened: as §1

PHKG2 = molecular target: T1, PHKG2 (UniProt P15735)
T1 sequence (whole entry): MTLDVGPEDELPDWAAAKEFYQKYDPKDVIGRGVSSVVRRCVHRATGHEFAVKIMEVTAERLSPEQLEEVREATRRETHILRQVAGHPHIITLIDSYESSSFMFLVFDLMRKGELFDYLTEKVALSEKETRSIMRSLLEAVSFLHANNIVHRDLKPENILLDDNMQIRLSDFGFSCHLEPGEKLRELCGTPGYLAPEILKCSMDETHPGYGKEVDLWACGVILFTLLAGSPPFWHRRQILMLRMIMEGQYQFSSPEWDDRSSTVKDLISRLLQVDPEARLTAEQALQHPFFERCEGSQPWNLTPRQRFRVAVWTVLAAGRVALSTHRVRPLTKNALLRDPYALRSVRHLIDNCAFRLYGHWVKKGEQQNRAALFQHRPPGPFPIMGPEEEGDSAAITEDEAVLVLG
Procedure, shortened: as §1

ICK = molecular target: T2, ICK (UniProt Q9UPZ9)
T2 sequence (whole entry): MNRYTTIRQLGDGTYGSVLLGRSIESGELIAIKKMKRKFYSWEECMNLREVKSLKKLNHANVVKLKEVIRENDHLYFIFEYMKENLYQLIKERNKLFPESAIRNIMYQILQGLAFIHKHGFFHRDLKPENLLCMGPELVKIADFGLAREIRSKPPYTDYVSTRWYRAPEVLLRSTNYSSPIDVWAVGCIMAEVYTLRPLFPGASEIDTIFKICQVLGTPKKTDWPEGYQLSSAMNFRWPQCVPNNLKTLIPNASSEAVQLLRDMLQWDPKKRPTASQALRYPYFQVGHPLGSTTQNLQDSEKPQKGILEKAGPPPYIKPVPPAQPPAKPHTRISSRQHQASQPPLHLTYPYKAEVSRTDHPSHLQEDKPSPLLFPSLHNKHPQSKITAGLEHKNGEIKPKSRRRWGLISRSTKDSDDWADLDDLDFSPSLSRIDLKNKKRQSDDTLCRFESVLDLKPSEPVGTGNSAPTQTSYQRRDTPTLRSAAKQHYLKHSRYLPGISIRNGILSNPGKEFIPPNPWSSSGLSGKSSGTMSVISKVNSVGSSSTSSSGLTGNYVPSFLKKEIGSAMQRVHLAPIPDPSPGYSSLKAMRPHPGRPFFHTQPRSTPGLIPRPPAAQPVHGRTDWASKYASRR
Procedure, shortened: as §1

BMX = molecular target: T3, BMX (UniProt P51813); conditions: cell material: Lysate mix
T3 sequence (whole entry): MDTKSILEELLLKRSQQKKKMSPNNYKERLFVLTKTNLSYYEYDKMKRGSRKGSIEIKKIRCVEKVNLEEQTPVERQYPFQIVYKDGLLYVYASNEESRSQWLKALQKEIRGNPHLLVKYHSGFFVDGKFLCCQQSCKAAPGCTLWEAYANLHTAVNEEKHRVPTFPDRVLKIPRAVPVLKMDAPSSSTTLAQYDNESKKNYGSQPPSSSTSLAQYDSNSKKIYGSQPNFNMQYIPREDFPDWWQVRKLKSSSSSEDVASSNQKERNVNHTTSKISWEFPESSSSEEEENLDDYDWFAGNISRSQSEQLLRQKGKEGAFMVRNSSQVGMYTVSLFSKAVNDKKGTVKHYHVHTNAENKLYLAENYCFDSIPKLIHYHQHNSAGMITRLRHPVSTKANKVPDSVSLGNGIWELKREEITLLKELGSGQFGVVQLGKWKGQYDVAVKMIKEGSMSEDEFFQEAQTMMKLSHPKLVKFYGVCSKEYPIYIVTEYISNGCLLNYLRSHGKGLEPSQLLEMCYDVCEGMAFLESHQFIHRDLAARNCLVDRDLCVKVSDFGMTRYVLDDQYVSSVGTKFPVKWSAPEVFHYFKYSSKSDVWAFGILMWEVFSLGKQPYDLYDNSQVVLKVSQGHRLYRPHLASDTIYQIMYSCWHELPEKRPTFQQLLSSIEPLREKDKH
Procedure, shortened: as §1

IGF1R = IGF1R (UniProt P08069)
Sequence of IGF1R (P08069 whole entry, looked up): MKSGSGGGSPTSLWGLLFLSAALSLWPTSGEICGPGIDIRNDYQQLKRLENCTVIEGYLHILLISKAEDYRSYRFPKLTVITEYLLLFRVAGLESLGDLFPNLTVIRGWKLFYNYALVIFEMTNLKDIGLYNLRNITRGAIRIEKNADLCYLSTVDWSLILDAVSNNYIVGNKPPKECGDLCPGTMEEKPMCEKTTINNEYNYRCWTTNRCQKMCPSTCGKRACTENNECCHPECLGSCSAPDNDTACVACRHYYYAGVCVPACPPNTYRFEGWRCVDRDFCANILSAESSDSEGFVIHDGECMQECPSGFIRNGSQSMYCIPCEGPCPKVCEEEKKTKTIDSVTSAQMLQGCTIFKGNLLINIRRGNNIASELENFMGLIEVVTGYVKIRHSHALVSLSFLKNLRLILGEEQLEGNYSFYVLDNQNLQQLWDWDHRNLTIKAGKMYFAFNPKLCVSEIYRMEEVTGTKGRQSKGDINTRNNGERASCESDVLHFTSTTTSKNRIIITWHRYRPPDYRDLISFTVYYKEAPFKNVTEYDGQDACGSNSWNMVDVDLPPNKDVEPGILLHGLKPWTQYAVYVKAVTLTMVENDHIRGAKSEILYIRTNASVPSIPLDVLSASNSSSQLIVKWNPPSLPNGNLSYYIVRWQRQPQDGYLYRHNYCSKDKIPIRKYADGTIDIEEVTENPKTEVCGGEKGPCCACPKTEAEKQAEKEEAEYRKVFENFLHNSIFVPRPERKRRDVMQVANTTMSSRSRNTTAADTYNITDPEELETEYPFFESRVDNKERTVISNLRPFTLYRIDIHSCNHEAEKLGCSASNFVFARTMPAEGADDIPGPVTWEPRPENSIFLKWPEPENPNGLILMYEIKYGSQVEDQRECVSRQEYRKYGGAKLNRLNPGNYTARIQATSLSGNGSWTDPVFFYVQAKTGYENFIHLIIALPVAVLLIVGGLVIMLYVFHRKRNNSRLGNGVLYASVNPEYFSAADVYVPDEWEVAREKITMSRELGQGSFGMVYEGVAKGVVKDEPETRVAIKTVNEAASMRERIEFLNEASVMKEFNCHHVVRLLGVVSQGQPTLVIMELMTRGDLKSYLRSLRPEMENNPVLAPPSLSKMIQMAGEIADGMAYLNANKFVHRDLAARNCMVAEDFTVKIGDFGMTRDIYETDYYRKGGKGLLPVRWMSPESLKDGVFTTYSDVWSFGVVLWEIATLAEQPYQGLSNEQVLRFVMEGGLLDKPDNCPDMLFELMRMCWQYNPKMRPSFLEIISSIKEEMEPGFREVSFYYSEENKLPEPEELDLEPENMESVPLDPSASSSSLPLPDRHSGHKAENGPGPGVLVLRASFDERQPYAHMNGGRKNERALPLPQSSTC
Procedure, shortened: as §1

Sequence of PRKCB (P05771 whole entry, looked up): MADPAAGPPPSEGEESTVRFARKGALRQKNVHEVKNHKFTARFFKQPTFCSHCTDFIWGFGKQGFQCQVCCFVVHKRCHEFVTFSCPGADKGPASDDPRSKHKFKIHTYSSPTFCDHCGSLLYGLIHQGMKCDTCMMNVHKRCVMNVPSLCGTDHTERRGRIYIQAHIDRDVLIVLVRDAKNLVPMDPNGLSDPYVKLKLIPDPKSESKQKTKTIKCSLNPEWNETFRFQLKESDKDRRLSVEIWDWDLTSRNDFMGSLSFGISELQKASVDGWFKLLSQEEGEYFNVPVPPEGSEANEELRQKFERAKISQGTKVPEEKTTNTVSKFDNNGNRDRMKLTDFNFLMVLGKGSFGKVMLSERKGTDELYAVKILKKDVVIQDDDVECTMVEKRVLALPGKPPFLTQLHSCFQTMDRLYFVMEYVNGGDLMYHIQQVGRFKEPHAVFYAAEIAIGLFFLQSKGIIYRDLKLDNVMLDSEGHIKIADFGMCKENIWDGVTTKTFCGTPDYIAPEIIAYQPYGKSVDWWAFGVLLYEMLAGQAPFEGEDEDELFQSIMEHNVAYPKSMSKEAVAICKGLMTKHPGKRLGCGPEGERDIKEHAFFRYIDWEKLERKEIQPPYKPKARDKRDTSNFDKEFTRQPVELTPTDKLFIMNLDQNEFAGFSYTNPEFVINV

Row | pIC50 (PRKCB; cell material: Lysate mix) | pIC50 (UniProt P27448; cell material: Lysate mix) | pIC50 (PHKG2; cell material: Lysate mix) | pIC50 (ICK; cell material: Jurkat cells) | pIC50 (ICK; cell material: Lysate mix) | pIC50 (BMX) | pIC50 (IGF1R; cell material: Jurkat cells) | pIC50 (IGF1R; cell material: Lysate mix) | Structure (SMILES) | pIC50 (PRKCB; cell material: Jurkat lysate) | pIC50 (UniProt P27448; cell material: Jurkat lysate) | pIC50 (PHKG2; cell material: Jurkat cells) | pIC50 (PHKG2; cell material: Jurkat lysate) | pIC50 (ICK; cell material: Jurkat lysate) | pIC50 (IGF1R; cell material: Jurkat lysate) | pIC50 (PRKCB; cell material: Jurkat cells) | pIC50 (UniProt P27448; cell material: Jurkat cells)
1 | < 4.52 | < 4.52 | < 4.52 | 6.56 | 5.38 | < 4.52 | < 4.52 | < 4.52 | O=C(NCCNC(=O)c1cc(Nc2cc(C3CC3)[nH]n2)nc(N2CCN(Cc3ccc(S(=O)(=O)F)cc3)CC2)n1)OC1CC/C=C/CCC1 (configuration not stated) | < 4.52 | < 4.52 | < 4.52 | < 4.52 | 5.31 | < 4.52 | – | –
2 | < 4.52 | < 4.52 | < 4.52 | – | < 4.52 | < 4.52 | – | < 4.52 | Cc1cc(Nc2cc(C(=O)NCCNC(=O)OC3CC/C=C/CCC3)nc(N3CCN(Cc4ccc(S(=O)(=O)F)cc4)CC3)n2)n[nH]1 (configuration not stated) | – | – | – | – | – | – | – | –
3 | < 4.52 | < 4.52 | < 4.52 | – | 6.46 | < 4.52 | – | < 4.52 | CCNC(=O)c1cc(Nc2cc(C3CC3)[nH]n2)nc(N2CCN(Cc3ccc(S(=O)(=O)F)cc3)CC2)n1 | – | – | – | – | – | – | – | –
4 | < 4.52 | < 4.52 | < 4.52 | – | 5.64 | < 4.52 | – | < 4.52 | CCNC(=O)c1cc(Nc2cc(C)[nH]n2)nc(N2CCN(Cc3ccc(S(=O)(=O)F)cc3)CC2)n1 | – | – | – | – | – | – | – | –
5 | < 4.52 | < 4.52 | < 4.52 | – | 5.43 | < 4.52 | – | < 4.52 | C#CCNC(=O)c1cc(Nc2cc(C)[nH]n2)nc(N2CCN(Cc3ccc(S(=O)(=O)F)cc3)CC2)n1 | – | – | – | – | – | – | – | –

Row | Structure (SMILES) | pIC50 (PRKCB; cell material: Lysate mix) | pIC50 (UniProt P27448; cell material: Lysate mix) | pIC50 (PHKG2; cell material: Lysate mix) | pIC50 (ICK; cell material: Jurkat cells) | pIC50 (ICK; cell material: Lysate mix) | pIC50 (BMX) | pIC50 (IGF1R; cell material: Jurkat cells) | pIC50 (IGF1R; cell material: Lysate mix) | pIC50 (PRKCB; cell material: Jurkat lysate) | pIC50 (UniProt P27448; cell material: Jurkat lysate) | pIC50 (PHKG2; cell material: Jurkat cells) | pIC50 (PHKG2; cell material: Jurkat lysate) | pIC50 (ICK; cell material: Jurkat lysate) | pIC50 (IGF1R; cell material: Jurkat lysate) | pIC50 (PRKCB; cell material: Jurkat cells) | pIC50 (UniProt P27448; cell material: Jurkat cells)
6 | C#CCNC(=O)c1cc(Nc2cc(C3CC3)[nH]n2)nc(N2CCN(Cc3ccc(S(=O)(=O)F)cc3)CC2)n1 | < 4.52 | < 4.52 | < 4.52 | – | 6.53 | < 4.52 | – | < 4.52 | < 4.52 | < 4.52 | 5.16 | < 4.52 | 6.22 | < 4.52 | 5.46 | 5.81
